Publication PMC6237173, “Synthesis of novel 6,7-dimethoxy-4-anilinoquinolines as potent c-Met inhibitors” (Journal of Enzyme Inhibition and Medicinal Chemistry, 2018)

Assays:
[1] = system: MCF-7 (human breast cancer) cell line; assay: Cell proliferation assay (MTT), MCF-7; assay type: cell-based; conditions: MCF7, 48 h exposure, n = 3 (mean ± SD), read-out: Proliferative inhibition IC50, MCF-7
Protocol: (§1) The anti-proliferative activities of the prepared compounds (12a-12s) were evaluated against A549, MCF-7 and MKN-45 cell lines by MTT assay in vitro. Briefly, tumour cells were cultured to log phase in RPMI 1640 medium supplemented with 10% foetal bovine serum (FBS). After diluting to 2 × 10^4 cells mL^−1 with the complete medium, 100 µL of the obtained cell suspension was added to each well of 96-well culture plates. Subsequently, incubation was performed at 37 °C in 5% CO2 for 24 h before the anti-proliferative assessment. Tested samples at pre-set concentrations were added to 6 wells with cabozantinib as a positive reference. After 48 h exposure period, 40 µL of PBS containing 2.5 mg mL^−1 of MTT was added to each well. Four hours later, 100 µL extraction solution (10% SDS-5% isobutyl alcohol-0.010M HCl) was added. After an overnight incubation at 37°C, the absorbance was measured at a wavelength of 570 nm with an ELISA microplate reader. All compounds were tested three times in each tumour cell lines. The IC50 values were the averages of three determinations and calculated by concentration-response curve fitting method.
(§2) All the synthesised compounds […] were evaluated for their antiproliferation activities against A549 (human lung cancer), MCF-7 (human breast cancer) and MKN-45 (human gastric cancer) cell lines by MTT assay, using cabozantinib as the positive control.

[2] = system: MKN-45 (human gastric cancer) cell line; assay: Cell proliferation assay (MTT), MKN-45; assay type: cell-based; conditions: 48 h exposure, n = 3 (mean ± SD), read-out: Proliferative inhibition IC50, MKN-45
Protocol: as §1, §2

c-Met kinase = biological target: T1, c-Met kinase (Homo sapiens, UniProt P08581); assay: c-Met inhibition assay (Caliper motility shift assay); assay type: biochemical
T1 construct: purchased Carna
Protocol: A Caliper motility shift assay was applied to test the potency of synthesised compounds against c-Met kinase. Briefly, the compounds were dissolved in DMSO (Sigma) at 0.5 mM concentration, and then were diluted 50× to the final desired highest inhibitor concentration (10 μM) in reaction by DMSO. For all compounds, 100 μL of the diluted compound solution in tubes was transferred to a well on a 96-well plate (Corning) and was serially diluted 10× by transferring 10 μL dilution to 90 μL DMSO in the next well. 100 μL DMSO was added to two empty wells in the same 96-well plate for no compound control and no enzyme control. The plate was marked as source plate. 10 μL of compound solution from source plate was transferred to a new 96-well plate as the intermediate plate. […] After that, 5 μL solution from each well of the intermediate plate was transferred to a 384-well plate (Corning) as the assay plate in duplicates.c-Met kinase (Carna) was added in 1× kinase base buffer to prepare 2.5× enzyme solution, and FAM-labled peptide (GL Biochem) and ATP (Sigma) were added in 1× kinase base buffer to prepare 2.5× peptide solution. 10 μL of 2.5× enzyme solution was added to each well of the 384-well assay plate that already contained 5 μL of compound in 10% DMSO, and then incubated at room temperature for 10 min. […] The data were collected on Caliper and the conversion data were copied from Caliper program.
IC50 values were calculated from three independent experiments by fitting the data in XLfit with the following equation: Y = Bottom + (Top-Bottom)/(1 + (IC50/X)^HillSlope).

[3] = system: A549 (human lung cancer) cell line; assay: Cell proliferation assay (MTT), A549; assay type: cell-based; conditions: 48 h exposure, n = 3 (mean ± SD), read-out: Proliferative inhibition IC50, A549
Protocol: as §1, §2

T1 sequence (P08581 25-1390): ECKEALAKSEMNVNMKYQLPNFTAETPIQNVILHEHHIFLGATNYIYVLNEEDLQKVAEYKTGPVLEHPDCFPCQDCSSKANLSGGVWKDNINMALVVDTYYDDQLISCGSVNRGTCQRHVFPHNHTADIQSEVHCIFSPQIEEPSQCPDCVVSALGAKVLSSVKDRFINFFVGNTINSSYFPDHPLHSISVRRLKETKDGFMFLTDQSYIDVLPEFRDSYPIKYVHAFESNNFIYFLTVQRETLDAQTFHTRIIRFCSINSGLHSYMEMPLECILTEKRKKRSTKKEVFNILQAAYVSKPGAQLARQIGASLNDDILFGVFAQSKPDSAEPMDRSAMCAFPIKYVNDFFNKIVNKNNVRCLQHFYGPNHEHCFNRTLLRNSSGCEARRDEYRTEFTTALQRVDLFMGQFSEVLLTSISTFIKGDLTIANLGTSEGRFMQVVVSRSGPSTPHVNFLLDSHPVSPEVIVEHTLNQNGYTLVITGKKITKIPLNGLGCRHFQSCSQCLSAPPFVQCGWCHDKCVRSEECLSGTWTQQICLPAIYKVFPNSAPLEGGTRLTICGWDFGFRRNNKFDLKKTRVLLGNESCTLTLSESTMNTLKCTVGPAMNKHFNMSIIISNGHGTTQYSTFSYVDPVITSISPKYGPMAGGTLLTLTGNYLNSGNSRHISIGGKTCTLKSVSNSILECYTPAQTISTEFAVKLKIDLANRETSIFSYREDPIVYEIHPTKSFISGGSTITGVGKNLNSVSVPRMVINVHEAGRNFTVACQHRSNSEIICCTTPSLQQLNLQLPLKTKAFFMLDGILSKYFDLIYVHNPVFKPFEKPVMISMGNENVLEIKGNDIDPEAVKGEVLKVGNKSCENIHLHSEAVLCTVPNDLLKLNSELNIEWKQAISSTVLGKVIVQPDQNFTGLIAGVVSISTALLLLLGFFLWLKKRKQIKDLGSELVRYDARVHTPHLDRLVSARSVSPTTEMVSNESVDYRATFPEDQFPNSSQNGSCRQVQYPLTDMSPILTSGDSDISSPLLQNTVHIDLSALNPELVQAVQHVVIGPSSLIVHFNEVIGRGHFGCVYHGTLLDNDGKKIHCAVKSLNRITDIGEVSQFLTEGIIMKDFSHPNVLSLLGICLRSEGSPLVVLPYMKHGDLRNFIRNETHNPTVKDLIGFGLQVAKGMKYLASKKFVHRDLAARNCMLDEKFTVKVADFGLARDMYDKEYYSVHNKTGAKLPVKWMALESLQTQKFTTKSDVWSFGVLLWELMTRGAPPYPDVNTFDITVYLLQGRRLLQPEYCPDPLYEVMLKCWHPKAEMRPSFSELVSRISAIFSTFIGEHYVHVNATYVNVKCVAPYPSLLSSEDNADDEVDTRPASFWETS

COc1cc2nccc(Nc3ccc4nc(-c5cc(F)ccc5Br)[nH]c4c3)c2cc1OC [Compound 12s, N-(2–(2-bromo-5-fluorophenyl)-1H-benzo[d]imidazol-6-yl)-6,7-dimethoxyquinolin-4-amine]
IC50 [1]: 92.7 ± 5.3 µM
IC50 [2]: > 100 µM
c-Met inhibition % Inhibition (10 μΜ) (c-Met kinase; 10 μΜ compound, n = 3 (mean ± SD)): 23.0 ± 1.1%
c-Met inhibitory activity in words (c-Met kinase; SAR statement, ortho-substituted compounds): loss of activity
melting point: 284 to 286 °C
IC50 [3]: > 100 µM
